IC50 data for 23 molecules are collected here from patent publication US8580812B2, “Heteroaryl amide analogues as P2X7 antagonists” (H. Lundbeck A/S, priority 2007, dated 2013).

In general, IC50 refers to the concentration at which inhibition is half-maximal.

In this test the target is T1, P2X7 (Homo sapiens, UniProt Q99572).
T1 construct: host or cells: SH-SY5Y
T1 sequence (Q99572 1-595): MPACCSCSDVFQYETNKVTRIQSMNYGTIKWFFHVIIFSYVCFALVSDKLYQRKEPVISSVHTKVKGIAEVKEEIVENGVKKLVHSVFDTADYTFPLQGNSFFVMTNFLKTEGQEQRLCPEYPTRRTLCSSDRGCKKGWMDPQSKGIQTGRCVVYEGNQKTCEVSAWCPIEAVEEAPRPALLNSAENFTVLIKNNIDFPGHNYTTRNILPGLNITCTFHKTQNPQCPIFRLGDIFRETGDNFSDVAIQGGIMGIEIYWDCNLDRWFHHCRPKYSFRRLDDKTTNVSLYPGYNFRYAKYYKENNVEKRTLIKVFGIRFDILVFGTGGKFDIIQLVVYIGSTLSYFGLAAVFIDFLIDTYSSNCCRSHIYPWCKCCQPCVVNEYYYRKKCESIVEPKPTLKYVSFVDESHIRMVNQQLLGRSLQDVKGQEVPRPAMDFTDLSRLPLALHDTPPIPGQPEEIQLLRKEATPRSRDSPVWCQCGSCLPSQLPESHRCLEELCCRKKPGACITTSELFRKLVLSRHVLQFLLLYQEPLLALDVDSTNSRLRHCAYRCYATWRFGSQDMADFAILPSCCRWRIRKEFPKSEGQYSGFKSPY
Description: High Throughput P2X7 Calcium Mobilization Assay (Example 4A), antagonist activity. It counts as cell-based. The note with it: SH-SY5Y cells, 50% decrease in fluorescence response of cells exposed to 80 μM BzATP. Here is the method:
A. High Throughput P2X7 Calcium Mobilization Assay
SH-SY5Y cells, ATCC Number CRL-2266, (American Type Culture Collection, Manassas, Va.) are cultured under DMEM/High medium supplemented with 10% FBS, and 10 mM HEPES (Invitrogen Corp., Carlsbad, Calif.) in 5% CO2 and at 37° C. One day prior to the experiment, cells are plated at a density of 100,000 cells/well in a 96 well black/clear TC plate (Corning® Costar®, Sigma-Aldrich Co., St. Louis, Mo.). At the beginning of the experiment, the culture medium is removed and cells are incubated with 50 μL of 2.3 μM Fluo-4 AM dye (Invitrogen Corp.) in the assay solution (5 mM KCl, 9.6 mM NaH2PO4.H2O, 25 mM HEPES, 280 mM Sucrose, 5 mM Glucose, and 0.5 mM CaCl2; pH is adjusted to 7.4 with NaOH) for an hour at 37° C. After one hour dye incubation, wells are rinsed once with 50 μL assay solution, and are then incubated for an hour at room temperature with 100 μL assay solution containing the test compound. The final concentration of test compound generally ranges from 1 to 2500 nM; for positive control cells, no test compound is added. After the one hour incubation, plates are transferred to a FLIPR^TETRA instrument (Molecular Devices, Sunnyvale, Calif.) for calcium mobilization analysis.
For determination of antagonist activity, 50 μL of P2X7 agonist (2′(3′)-O-(4-benzoyl-benzoyl)adenosine 5′-triphosephate (BzATP; Sigma-Aldrich) in the assay solution is transferred using the FLIPR into the plate, such that the final agonist concentration is 80 μM (about EC50). In negative control cells, 50 μL of assay solution without agonist is added at this stage. The peak fluorescence signal over a 2 minute period is then measured.
First, the average maximum relative fluorescent unit (RFU) response from the negative control wells (no agonist) is subtracted from the maximum response detected for each of the other experimental wells. Second, average maximum RFU response is calculated for the positive control wells (agonist wells). Then, percent inhibition for each compound tested is calculated using the equation: Percent Inhibition=100−100×(Peak Signal in Test Cells/Peak Signal in Control Cells) The % inhibition data is plotted as a function of test compound concentration and test compound IC50 is determined using, for example, KALEIDAGRAPH software (Synergy Software, Reading, Pa.) best fit of the data to the equation: y=m1*(1/(1+(m2/m0)^m3)) where y is the percent inhibition, m0 is […], m1 is the maximum RFU, m2 corresponds to the test compound IC50 (the concentration required to provide a 50% decrease, relative to the response observed in the presence of agonist and without antagonist) and m3 is the Hill coefficient.
Background: Calcium flux is commonly read through the fluorescence of an indicator in the cells.

In the case of `O=C(NCC(F)F)c1cc2c(C(=O)NCC34CC5CC(CC(C5)C3)C4)cccn2n1` [Compound 63, 4-N-(adamantan-1-ylmethyl)-2-N-(2,2-difluoroethyl)pyrazolo [1,5-a]pyridine-2,4-dicarboxamide], the IC50 is not above 2 µM.
The same measure for `O=C(NCC(F)(F)F)c1cc2c(C(=O)NCC34CC5CC(CC(C5)C3)C4)cccn2n1` [Compound 64, 4-N-(adamantan-1-ylmethyl)-2-N-(2,2,2-trifluoroethyl)pyrazolo [1,5-a]pyridine-2,4-dicarboxamide]: not above 2 µM; for `CN(Cc1ccccc1F)C(=O)c1cc2c(C(=O)NCC34CC5CC(CC(C5)C3)C4)cccn2n1` [Compound 65, 4-N-(adamantan-1-ylmethyl)-2-N-(2-fluorobenzyl)-2-N-methylpyrazolo[1,5-a]pyridine-2,4-dicarboxamide]: not above 2 µM.
The same measure for `CN(Cc1cccc(F)c1)C(=O)c1cc2c(C(=O)NCC34CC5CC(CC(C5)C3)C4)cccn2n1` [Compound 66, 4-N-(adamantan-1-ylmethyl)-2-N-(3-fluorobenzyl)-2-N-methylpyrazolo[1,5-a]pyridine-2,4-dicarboxamide]: not above 2 µM; for `CN(Cc1ccc(F)cc1)C(=O)c1cc2c(C(=O)NCC34CC5CC(CC(C5)C3)C4)cccn2n1` [Compound 67, 4-N-(adamantan-1-ylmethyl)-2-N-(4-fluorobenzyl)-2-N-methylpyrazolo[1,5-a]pyridine-2,4-dicarboxamide]: not above 2 µM.
Then `CN(Cc1cc2c(C(=O)NCC34CC5CC(CC(C5)C3)C4)cccn2n1)Cc1ccccc1F` [Compound 68, N-(adamantan-1-ylmethyl)-2-{[(2-fluorobenzyl)(methyl)amino]methyl}pyrazolo [1,5-a]pyridine-4-carboxamide], with not above 2 µM; and `CN(Cc1cccc(F)c1)Cc1cc2c(C(=O)NCC34CC5CC(CC(C5)C3)C4)cccn2n1` [Compound 69, N-(adamantan-1-ylmethyl)-2-{[(3-fluorobenzyl)(methyl)amino]methyl}pyrazolo [1,5-a]pyridine-4-carboxamide], with not above 2 µM; and `CN(Cc1ccc(F)cc1)Cc1cc2c(C(=O)NCC34CC5CC(CC(C5)C3)C4)cccn2n1` [Compound 70, N-(adamantan-1-ylmethyl)-2-{[(4-fluorobenzyl)(methyl)amino]methyl}pyrazolo [1,5-a]pyridine-4-carboxamide], with not above 2 µM.
Regarding `CC(C)CC(CNC(=O)c1cccn2nc(C(=O)N3CC[C@@H](N)C3)cc12)c1ccc(Cl)cc1` (stereo partly drawn) [Compound 71, 2-{[(3R)-3-aminopyrrolidin-1-yl]carbonyl}-N-[2-(4-chlorophenyl)-4-methylpentyl]pyrazolo [1,5-a]pyridine-4-carboxamide], the 50% inhibitory concentration (IC50) was not above 2 µM.
The same measure for `N[C@@H]1CCN(C(=O)c2cc3c(C(=O)NCC(CC4CCCCC4)c4ccccc4)cccn3n2)C1` (stereo partly drawn) [Compound 72, 2-{[(3R)-3-aminopyrrolidin-1-yl]carbonyl}-N-(3-cyclohexyl-2-phenylpropyl)pyrazolo [1,5-a]pyridine-4-carboxamide]: not above 2 µM; for `CN(CCF)C(=O)c1cc2c(C(=O)NCC34CC5CC(CC(C5)C3)C4)cccn2n1` [Compound 74, 4-N-(adamantan-1-ylmethyl)-2-N-(2-fluoroethyl)-2-N-methylpyrazolo[1,5-a]pyridine-2,4-dicarboxamide]: not above 2 µM; for `CN(CC(F)F)C(=O)c1cc2c(C(=O)NCC34CC5CC(CC(C5)C3)C4)cccn2n1` [Compound 75, 4-N-(adamantan-1-ylmethyl)-2-N-(2,2-difluoroethyl)-2-N-methylpyrazolo[1,5-a]pyridine-2,4-dicarboxamide]: not above 2 µM.
Then `CN(CC(F)(F)F)C(=O)c1cc2c(C(=O)NCC34CC5CC(CC(C5)C3)C4)cccn2n1` [Compound 76, 4-N-(adamantan-1-ylmethyl)-2-N-methyl-2-N-(2,2,2-trifluoroethyl)pyrazolo [1,5-a]pyridine-2,4-dicarboxamide], with not above 2 µM.
The same measure for `CN(CCF)C(=O)Cc1cc2c(C(=O)NCC34CC5CC(CC(C5)C3)C4)cccn2n1` [Compound 77, N-(adamantan-1-ylmethyl)-2-{2-[(2-fluoroethyl)(methyl)amino]-2-oxoethyl}pyrazolo[1,5-a]pyridine-4-carboxamide]: not above 2 µM; for `CN(CC(F)F)C(=O)Cc1cc2c(C(=O)NCC34CC5CC(CC(C5)C3)C4)cccn2n1` [Compound 78, N-(adamantan-1-ylmethyl)-2-{2-[(2,2-difluoroethyl)(methyl)amino]-2-oxoethyl}pyrazolo[1,5-a]pyridine-4-carboxamide]: not above 2 µM; for `CN(CC(F)(F)F)C(=O)Cc1cc2c(C(=O)NCC34CC5CC(CC(C5)C3)C4)cccn2n1` [Compound 79, N-(adamantan-1-ylmethyl)-2-{2-[methyl(2,2,2-trifluoroethyl)amino]-2-oxoethyl}pyrazolo[1,5-a]pyridine-4-carboxamide]: not above 2 µM.
For `CC(C)CC(CNC(=O)c1cccn2nc(C(=O)N3CC[C@@H](N)C3)cc12)c1ccc(C(F)(F)F)cc1` (stereo partly drawn) [Compound 80, 2-{[(3R)-3-aminopyrrolidin-1-yl]carbonyl}-N-{4-methyl-2-[4-(trifluoromethyl)phenyl]pentyl}pyrazolo[1,5-a]pyridine-4-carboxamide], the IC50 was not above 2 µM.
Then `O=C(NC1CCS(=O)(=O)C1)c1cc2c(C(=O)NCC34CC5CC(CC(C5)C3)C4)cccn2n1` (centres unmarked) [Compound 82, 4-N-(adamantan-1-ylmethyl)-2-N-(1,1-dioxidotetrahydrothio-phen-3-yl)pyrazolo[1,5-a]pyridine-2,4-dicarboxamide], with not above 2 µM; and `O=C(NCC1(c2ccc(Cl)cc2)CCCCC1)c1cccn2nc(C(=O)N3CCn4cncc4C3)cc12` [Compound 83, N-{[1-(4-chlorophenyl)cyclohex-yl]methyl}-2-(5,6-dihydroimidazo[1,5-a]pyrazin-7(8H)-ylcarbonyl)pyrazolo [1,5-a]pyridine-4-carboxamide], with not above 2 µM; and `O=C(NCC1(c2ccc(Cl)cc2)CCCCC1)c1cccn2nc(C(=O)N3CCOCC3)cc12` [Compound 84, N-{[1-(4-chlorophenyl)cyclohex-yl]methyl}-2-(morpholin-4-ylcarbonyl)pyrazolo [1,5-a]pyridine-4-carboxamide], with not above 2 µM.
The same measure for `CN(CCF)C(=O)c1cc2c(C(=O)NCC3(c4ccc(Cl)cc4)CCCCC3)cccn2n1` [Compound 85, 4-N-{[1-(4-chlorophenyl)cyclohex-yl]methyl}-2-N-(2-fluoroethyl)-2-N-methylpyrazolo[1,5-a]pyridine-2,4-dicarboxamide]: not above 2 µM; for `CC(C)CC(CNC(=O)c1cccn2nc(C(=O)N(C)CCF)cc12)c1ccc(C(F)(F)F)cc1` (centres unmarked) [Compound 86, 2-N-(2-fluoroethyl)-2-N-methyl-4-N-{4-methyl-2-[4-(trifluoromethyl)phenyl]pentyl}pyrazolo[1,5-a]pyridine-2,4-dicarboxamide]: not above 2 µM; for `CC(C)CC(CNC(=O)c1cccn2nc(C(=O)N3CCOCC3)cc12)c1ccc(C(F)(F)F)cc1` (centres unmarked) [Compound 87, N-{4-methyl-2-[4-(trifluoromethyl)phenyl]pentyl}-2-(morpholin-4-ylcarbonyl)pyrazolo [1,5-a]pyridine-4-carboxamide]: not above 2 µM.
